Experimental data reported in patent US11839671B2, “Oral care compositions comprising tin ions” (The Procter & Gamble Company, priority 2019, dated 2023).

Assay: Solubility of tin ions in polyol solutions with SnF2 at various pH (visual appearance)
Format: physicochemical
Conditions: for Appearance of polyol solution with SnF2, pH 2-4 / Appearance of polyol solution with SnF2, pH 4-6 / Appearance of polyol solution with SnF2, pH 6-8 / Appearance of polyol solution with SnF2, pH 8-10: aqueous polyol solution + 0.45 g SnF2; for Appearance of polyol solution with SnF2, pH 2-4 / Appearance of polyol solution with SnF2, pH 4-6 / Appearance of polyol solution with SnF2, pH 6-8: cloudy = insoluble tin complexes formed; for Appearance of polyol solution with SnF2, pH 8-10: cloudy = Sn(OH)2 formed; for Appearance of polyol/stannous fluoride solution at a pH of greater than 7: aqueous polyol/stannous fluoride solution, pH greater than 7, cloudy = Sn(OH)2 formation not prevented
Procedure: A 30% (w/w) solution was prepared for each polyol was prepared using the appropriate amount of the pure polyol and deionized water. Next, 46 g of the 30% (w/w) polyol solution was placed in a 250 mL glass beaker with a stirring bar on top of a magnetic stirring apparatus. 21 g of deionized water was added to the glass beaker and the magnetic stirring apparatus was started to commence stirring of the solution. A pH electrode was connected to a pH meter (VWR Scientific, Model 9100, Radnor, Pa.) and the pH electrode (ThermoFisher Scientific, Orion 8165BNWP, Waltham, Mass.) was placed in the stirring polyol solution.
0.45 grams of a tin ion source, such as stannous fluoride, was added to the stirring polyol solution. The pH was recorded once the tin ion source was completely added. The pH of the solution was increased by dropwise addition of a 33% (w/w) solution of NaOH.
0.45 grams of a tin ion source, such as stannous fluoride, was added to the stirring polyol solution. The pH was recorded once the tin ion source was completely added. The pH of the solution was decreased by dropwise addition of a 33% (w/w) solution of HCl.
A solution that appeared cloudy indicated the formation of insoluble tin complexes. At a pH of greater than 7, a cloudy solution indicated the formation of Sn(OH)2. FIG. 1-4 illustrates TABLE 2 by showing the appearance of each solution described in TABLE 2.

Row | Appearance of polyol solution with SnF2, pH 2-4 | Appearance of polyol solution with SnF2, pH 2-4 (listed as xylitol) | Appearance of polyol solution with SnF2, pH 4-6 | Appearance of polyol solution with SnF2, pH 4-6 (listed as xylitol) | Appearance of polyol solution with SnF2, pH 6-8 | Appearance of polyol solution with SnF2, pH 6-8 (listed as xylitol) | Appearance of polyol solution with SnF2, pH 8-10 | Appearance of polyol solution with SnF2, pH 8-10 (listed as xylitol) | Appearance of polyol/stannous fluoride solution at a pH of greater than 7 | Appearance of polyol solution with SnF2, pH 2-4 (listed as sorbitol) | Appearance of polyol solution with SnF2, pH 4-6 (listed as sorbitol) | Appearance of polyol solution with SnF2, pH 6-8 (listed as sorbitol) | Appearance of polyol solution with SnF2, pH 8-10 (listed as sorbitol) | Compound
1 | Clear | clear | Cloudy | cloudy | Cloudy | cloudy | Clear | clear |  |  |  |  |  | OC[C@@H](O)[C@H](O)[C@@H](O)CO [Xylitol (5 Carbon), Xylitol]
2 | Clear |  | Cloudy |  | Cloudy |  | Cloudy |  | cloudy |  |  |  |  | OC[C@@H](O)[C@@H](O)CO [Erythritol (4 Carbon), Erythritol]
3 | Clear |  | Cloudy |  | Cloudy |  | Clear |  |  | clear | cloudy | cloudy | clear | OC[C@@H](O)[C@@H](O)[C@H](O)[C@@H](O)CO [Sorbitol (6 Carbon), Sorbitol]
4 | Clear |  | Clear |  | Cloudy |  | Cloudy |  | cloudy |  |  |  |  | OCC(O)CO [Glycerin (3 Carbon), Glycerin]
